Measurements: US20260001928A1 (CORTERIA PHARMACEUTICALS, priority 2022, published 2026)
pEC50: −log10 of the molar value. *1 amine or outer side, *2 acyl side, *3 side chain or, on linkers, in order; H or OH if unused. Where a SMILES comes first, the peptide text is derived from it. Side-chain parts run from the residue outwards. [ ]: non-standard residue; d: D form. The star is where a group is joined. C16 diacid = O=C(O)CCCCCCCCCCCCCCC(=O)*; γGlu = O=C(O)[C@H](CCC(=O)[*:2])N[*:1]; NMeI = CC[C@H](C)[C@H](NC)C(=O)O; αMeL = CC(C)C[C@](C)(N)C(=O)O; Abu = CC[C@H](N)C(=O)O; Dap = NC[C@H](N)C(=O)O

Tests used:
[1] = target: T1, CFR1R receptor (Homo sapiens, UniProt P34998); assay: Activity at anti-target CFR1R receptor, cAMP assay in CRF1R-overexpression CHO-K1 cells; assay type: cell-based; conditions: 100% = Sauvagine at 100 nM; for pEC50: cAMP
T1 construct: host or cells: CHO-K1 (clone 2)
T1 sequence (P34998 24-415): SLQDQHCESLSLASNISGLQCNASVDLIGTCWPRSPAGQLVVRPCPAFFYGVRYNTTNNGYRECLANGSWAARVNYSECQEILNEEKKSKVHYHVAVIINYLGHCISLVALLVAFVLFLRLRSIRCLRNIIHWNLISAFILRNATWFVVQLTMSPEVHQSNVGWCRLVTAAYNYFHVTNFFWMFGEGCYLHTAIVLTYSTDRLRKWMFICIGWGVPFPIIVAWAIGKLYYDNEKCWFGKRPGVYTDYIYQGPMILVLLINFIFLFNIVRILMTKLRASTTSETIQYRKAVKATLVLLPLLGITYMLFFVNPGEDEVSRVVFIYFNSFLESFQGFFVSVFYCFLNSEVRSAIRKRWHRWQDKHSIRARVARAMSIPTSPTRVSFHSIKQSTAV
Method in brief: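 Clone 2; cryopreserved stocks (10% DMSO); 4000 cells/well final; 100% activation = Sauvagine 100 nM; otherwise as TeloHAEC protocol.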

[2] = target: T2, human CRF2a receptor (Homo sapiens, UniProt Q13324); assay: Activity at human CRF2a receptor, cAMP functional assay in TeloHEAC cells; assay type: cell-based; conditions: TeloHEAC cells stably expressing human CRF2a receptor, relative to urocortin 2 (100 nM = 100%)
T2 construct: expressed in transfected cells; host or cells: TeloHEAC cells
T2 sequence (Q13324 1-411): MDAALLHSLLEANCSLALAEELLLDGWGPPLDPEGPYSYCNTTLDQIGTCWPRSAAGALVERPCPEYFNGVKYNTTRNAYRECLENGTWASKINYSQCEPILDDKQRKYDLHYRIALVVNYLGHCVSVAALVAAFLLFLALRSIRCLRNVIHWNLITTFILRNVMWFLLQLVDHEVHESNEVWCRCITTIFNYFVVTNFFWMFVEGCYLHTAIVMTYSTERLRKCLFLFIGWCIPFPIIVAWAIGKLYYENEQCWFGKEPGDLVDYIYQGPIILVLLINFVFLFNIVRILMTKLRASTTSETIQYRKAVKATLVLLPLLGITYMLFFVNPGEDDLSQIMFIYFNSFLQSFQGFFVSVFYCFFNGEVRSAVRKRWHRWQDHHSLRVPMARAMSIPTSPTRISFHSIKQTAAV
Method in brief: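 cAMP accumulation was measured by HTRF 665/620 nm ratio after 30 min at 37° C compound exposure (16 twofold dilutions) of CRF2a-expressing TeloHEAC cells, 10000/well, in HEPES-buffered HBSS plus IBMX. Activity was normalised to urocortin 2 at 100 nM (100%), and EC50 was the concentration giving half-maximal activation.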

Compound | Emax (% I) [1] | pEC50 [1] | pEC50 [2]
CC[C@H](C)[C@H](NC)C(=O)N[C@H](C(=O)N[C@@H](CC(C)C)C(=O)N[C@@H](CO)C(=O)N[C@@H](CC(C)C)C(=O)N[C@@H](CC(=O)O)C(=O)N[C@@H](C(=O)N1CCC[C@H]1C(=O)N[C@H](C(=O)N[C@@H](CCCCN)C(=O)N[C@@](C)(CC(C)C)C(=O)N[C@@H](CCCCNC(=O)CC[C@H](NC(=O)CCCCCCCCCCCCCCC(=O)O)C(=O)O)C(=O)N[C@@H](CCCCN)C(=O)N[C@H](C(=O)N[C@@H](CC(C)C)C(=O)N[C@@H](CC(C)C)C(=O)N[C@@H](CCC(=O)O)C(=O)N[C@@H](CCC(N)=O)C(=O)N[C@@H](CCC(=O)O)C(=O)N[C@@H](CCCCN)C(=O)N[C@@H](CCC(N)=O)C(=O)N[C@@H](CCCCN)C(=O)N[C@@H](CCCCN)C(=O)N[C@@H](CCC(N)=O)C(=O)N[C@@H](CCCNC(=N)N)C(=O)N[C@@H](CCC(=O)O)C(=O)N[C@@H](CCC(N)=O)C(=O)N[C@@H](C)C(=O)N[C@@H](CCC(=O)O)C(=O)N[C@H](C(=O)N[C@@H](CC(N)=O)C(=O)N[C@H](C(=O)N[C@@H](CCC(N)=O)C(=O)N[C@H](C(=O)N[C@@H](CC(C)C)C(=O)N[C@@H](C)C(=O)N[C@@H](CCC(N)=O)C(=O)N[C@H](C(N)=O)C(C)C)[C@@H](C)CC)C(C)C)[C@@H](C)O)[C@@H](C)CC)[C@@H](C)CC)C(C)C)C(C)C [compound 67] (H-[NMeI]VLSLD[dV]PIK[αMeL]K([γGlu-C16 diacid])KILLEQEKQKKQREQAETNVQILAQV-NH2) | 8 % I | < 6.60 | 9.47
CC[C@H](C)[C@H](NC)C(=O)N[C@H](C(=O)N[C@@H](CC(C)C)C(=O)N[C@@H](CO)C(=O)N[C@@H](CC(C)C)C(=O)N[C@@H](CC(=O)O)C(=O)N[C@@H](C(=O)N1CCC[C@H]1C(=O)N[C@H](C(=O)N[C@@H](CCCCN)C(=O)N[C@@H](CC(C)C)C(=O)N[C@@H](CCCCNC(=O)CC[C@H](NC(=O)CCCCCCCCCCCCCCC(=O)O)C(=O)O)C(=O)N[C@@H](CCCCN)C(=O)N[C@H](C(=O)N[C@@H](CC(C)C)C(=O)N[C@@H](CC(C)C)C(=O)N[C@@H](CCC(=O)O)C(=O)N[C@@H](CCC(N)=O)C(=O)N[C@@H](CCC(=O)O)C(=O)N[C@@H](CCCCN)C(=O)N[C@@H](CCC(N)=O)C(=O)N[C@@H](CCCCN)C(=O)N[C@@H](CCCCN)C(=O)N[C@@H](CCC(N)=O)C(=O)N[C@@H](CCCNC(=N)N)C(=O)N[C@@H](CCC(=O)O)C(=O)N[C@@H](CCC(N)=O)C(=O)N[C@@H](C)C(=O)N[C@@H](CCC(=O)O)C(=O)N[C@H](C(=O)N[C@@H](CC(N)=O)C(=O)N[C@@H](CN)C(=O)N[C@@H](CCC(N)=O)C(=O)N[C@H](C(=O)N[C@@H](CC(C)C)C(=O)N[C@@H](C)C(=O)N[C@@H](CCC(N)=O)C(=O)N[C@H](C(N)=O)C(C)C)[C@@H](C)CC)[C@@H](C)O)[C@@H](C)CC)[C@@H](C)CC)C(C)C)C(C)C [compound 70] (H-[NMeI]VLSLD[dV]PIKLK([γGlu-C16 diacid])KILLEQEKQKKQREQAETN[Dap]QILAQV-NH2) | 0 % I | < 6.60 | 9.77

More lines, now with the values ahead:

Emax (% I) [1] | pEC50 [1] | pEC50 [2] | Compound
4 % I | < 6.60 | 8.98 | CC[C@H](C)[C@H](NC)C(=O)N[C@H](C(=O)N[C@@H](CC(C)C)C(=O)N[C@@H](CO)C(=O)N[C@@H](CC(C)C)C(=O)N[C@@H](CC(=O)O)C(=O)N[C@@H](C(=O)N1CCC[C@H]1C(=O)N[C@H](C(=O)N[C@@H](CCCCN)C(=O)N[C@@H](CC(C)C)C(=O)N[C@@H](CCCCNC(=O)CC[C@H](NC(=O)CCCCCCCCCCCCCCC(=O)O)C(=O)O)C(=O)N[C@@H](CCCCN)C(=O)N[C@H](C(=O)N[C@@H](CC(C)C)C(=O)N[C@@H](CC(C)C)C(=O)N[C@@H](CCC(=O)O)C(=O)N[C@@H](CCC(N)=O)C(=O)N[C@@H](CCC(=O)O)C(=O)N[C@@H](CCCCN)C(=O)N[C@@H](CCC(N)=O)C(=O)N[C@@H](CCCCN)C(=O)N[C@@H](CCCCN)C(=O)N[C@@H](CCC(N)=O)C(=O)N[C@@H](CCCNC(=N)N)C(=O)N[C@@H](CCC(=O)O)C(=O)N[C@@H](CCC(N)=O)C(=O)N[C@@H](C)C(=O)N[C@@H](CCC(=O)O)C(=O)N[C@H](C(=O)N[C@@H](CC(N)=O)C(=O)N[C@H](C(=O)N[C@@H](CCC(N)=O)C(=O)N[C@H](C(=O)N[C@@H](CC(C)C)C(=O)N[C@@H](C)C(=O)N[C@@H](CCC(N)=O)C(=O)N[C@H](C(N)=O)C(C)C)[C@@H](C)CC)C(C)C)[C@@H](C)O)[C@@H](C)CC)[C@@H](C)CC)C(C)C)C(C)C [compound 66] (H-[NMeI]VLSLD[dV]PIKLK([γGlu-C16 diacid])KILLEQEKQKKQREQAETNVQILAQV-NH2)
8 % I | < 6.60 | 10.30 | CC[C@H](C)[C@H](NC)C(=O)N[C@H](C(=O)N[C@@H](CC(C)C)C(=O)N[C@@H](CO)C(=O)N[C@@H](CC(C)C)C(=O)N[C@@H](CC(=O)O)C(=O)N[C@@H](C(=O)N1CCC[C@H]1C(=O)N[C@H](C(=O)N[C@@H](CCCCN)C(=O)N[C@@H](CC(C)C)C(=O)N[C@@H](CCCCNC(=O)CC[C@H](NC(=O)CCCCCCCCCCCCCCC(=O)O)C(=O)O)C(=O)N[C@@H](CCCCN)C(=O)N[C@H](C(=O)N[C@@H](CC(C)C)C(=O)N[C@@H](CC(C)C)C(=O)N[C@@H](CCC(=O)O)C(=O)N[C@@H](CCC(N)=O)C(=O)N[C@@H](CCC(=O)O)C(=O)N[C@@H](CCCCN)C(=O)N[C@@H](CCC(N)=O)C(=O)N[C@@H](CCCCN)C(=O)N[C@@H](CCCCN)C(=O)N[C@@H](CCC(N)=O)C(=O)N[C@@H](CCCNC(=N)N)C(=O)N[C@@H](CCC(=O)O)C(=O)N[C@@H](CCC(N)=O)C(=O)N[C@@H](C)C(=O)N[C@@H](CCC(=O)O)C(=O)N[C@H](C(=O)N[C@@H](CC(N)=O)C(=O)N[C@@H](C)C(=O)N[C@@H](CCC(N)=O)C(=O)N[C@H](C(=O)N[C@@H](CC(C)C)C(=O)N[C@@H](C)C(=O)N[C@@H](CCC(N)=O)C(=O)N[C@H](C(N)=O)C(C)C)[C@@H](C)CC)[C@@H](C)O)[C@@H](C)CC)[C@@H](C)CC)C(C)C)C(C)C [compound 68] (H-[NMeI]VLSLD[dV]PIKLK([γGlu-C16 diacid])KILLEQEKQKKQREQAETNAQILAQV-NH2)
3 % I | < 6.60 | 10.05 | CC[C@H](NC(=O)[C@H](CC(N)=O)NC(=O)[C@@H](NC(=O)[C@H](CCC(=O)O)NC(=O)[C@H](C)NC(=O)[C@H](CCC(N)=O)NC(=O)[C@H](CCC(=O)O)NC(=O)[C@H](CCCNC(=N)N)NC(=O)[C@H](CCC(N)=O)NC(=O)[C@H](CCCCN)NC(=O)[C@H](CCCCN)NC(=O)[C@H](CCC(N)=O)NC(=O)[C@H](CCCCN)NC(=O)[C@H](CCC(=O)O)NC(=O)[C@H](CCC(N)=O)NC(=O)[C@H](CCC(=O)O)NC(=O)[C@H](CC(C)C)NC(=O)[C@H](CC(C)C)NC(=O)[C@@H](NC(=O)[C@H](CCCCN)NC(=O)[C@H](CCCCNC(=O)CC[C@H](NC(=O)CCCCCCCCCCCCCCC(=O)O)C(=O)O)NC(=O)[C@H](CC(C)C)NC(=O)[C@H](CCCCN)NC(=O)[C@@H](NC(=O)[C@@H]1CCCN1C(=O)[C@H](NC(=O)[C@H](CC(=O)O)NC(=O)[C@H](CC(C)C)NC(=O)[C@H](CO)NC(=O)[C@H](CC(C)C)NC(=O)[C@@H](NC(=O)[C@@H](NC)[C@@H](C)CC)C(C)C)C(C)C)[C@@H](C)CC)[C@@H](C)CC)[C@@H](C)O)C(=O)N[C@@H](CCC(N)=O)C(=O)N[C@H](C(=O)N[C@@H](CC(C)C)C(=O)N[C@@H](C)C(=O)N[C@@H](CCC(N)=O)C(=O)N[C@H](C(N)=O)C(C)C)[C@@H](C)CC [compound 69] (H-[NMeI]VLSLD[dV]PIKLK([γGlu-C16 diacid])KILLEQEKQKKQREQAETN[Abu]QILAQV-NH2)
